Test results taken from patent US4833257A, “Compositions of matter and methods of using same” (Arizona Board of Regents, priority 1986, dated 1989).
Values after ≈ are worked out from the molar mass of the structure shown. Read-outs that look alike come from different tables or passages of the source.

Key:
[1] = tested on: P388 lymphocytic leukemia (PS system); test: in vivo antitumor test in mice bearing P388 lymphocytic leukemia (PS system), life extension / T/C
Text: (§1) The isolation and purification methods chosen can be monitored at each step by performing in-vitro and/or in-vivo antitumor tests as described by R. I. Geran, N. H. Greenberg, M. M. MacDonald, A. M. Schumacher and B. S. Abbot in Cancer Chemother. Rep. Part 3, Vol 3: 1-103 (1972); and by Schmidt, J. M.; Pettit, G. R. in Experientia 1978, 34: 659-660. Such tests include the determination of the concentration of active material required to inhibit the growth of tumor cells in culture, (e.g. the concentration required to inhibit growth by 50 percent or the E.D.50) and of the dose of active material required to prolong the life of mice bearing transplanted tumors. The chemical structures of the bryostatins of the present invention are shown below and the physical characteristics are reported in the pertinent examples. The structures are: [drawing 2]

[2] = tested on: P388 lymphocytic leukemia (PS cell line); test: P388 lymphocytic leukemia (PS) cell line growth inhibition; type: cell-based, murine; details: Mus musculus
Text: as §1

[3] = tested on: P388 lymphocytic leukemia and other NCI test systems; test: cell growth inhibitory and antineoplastic activity against P388 lymphocytic leukemia and other NCI test systems; parameters: species or system murine
Text: as §1

[4] = P388 lymphocytic leukemia cell line, read-out: PS cell line growth inhibition ED50

Row | SMILES | in vivo growth inhibition ([1]; at 92.5 μg/kg) | IC50 [2, 4] | cell growth inhibitory and antineoplastic activity [3] | life extension ([1]; at 30-50 μg/kg) | life extension ([1]; at 80 μg/kg) | IC50 ([2]; P388 lymphocytic leukemia, growth inhibition, read-out: PS ED50)
1 | COC(=O)/C=C1/C[C@H]2C[C@]3(O)O[C@H](C[C@@H](O)CC(=O)O[C@@H]([C@@H](C)O)C[C@@H]4C/C(=C\C(=O)OC)C[C@@](O)(O4)C(C)(C)/C=C/[C@@H](C1)O2)C[C@H](OC(C)=O)C3(C)C [Bryostatin 11] | 64% | 0.018 ng/mL (≈ 0.0235 nM) | substantial cell growth inhibitory and antineoplastic activity | – | – | –
2 | CCCC(=O)O[C@H]1C[C@H]2C[C@@H](O)CC(=O)O[C@@H]([C@@H](C)O)C[C@@H]3C/C(=C\C(=O)OC)C[C@@](O)(O3)C(C)(C)/C=C/[C@H]3C/C(=C\C(=O)OC)C[C@@H](C[C@](O)(O2)C1(C)C)O3 [Bryostatin 13] | – | 5.4 ng/mL (≈ 6.79 nM) | substantial cell growth inhibitory and antineoplastic activity | – | – | –
3 | CCC/C=C/C=C/C(=O)O[C@H]1/C(=C/C(=O)OC)C[C@H]2C[C@H]([C@@H](C)O)OC(=O)C[C@H](O)C[C@@H]3C[C@H](OC(=O)CCC)C(C)(C)[C@](O)(C[C@@H]4C/C(=C/C(=O)OC)C[C@H](/C=C/C(C)(C)[C@]1(O)O2)O4)O3 [Bryostatin 12] | – | 14 ng/mL (≈ 15 nM) | substantial cell growth inhibitory and antineoplastic activity | 47-68% | – | –
4 | CCCC(=O)O[C@H]1/C(=C/C(=O)OC)C[C@H]2C[C@H]([C@@H](C)O)OC(=O)C[C@H](O)C[C@@H]3C[C@H](OC(C)=O)C(C)(C)[C@](O)(C[C@@H]4C/C(=C/C(=O)OC)C[C@H](/C=C/C(C)(C)[C@]1(O)O2)O4)O3 [Bryostatin 9] | – | – | substantial cell growth inhibitory and antineoplastic activity | – | 40% | 1.2 ng/mL (≈ 1.41 nM)
